Test results taken from patent US20050215543A1, “Methods of treating HIV infection” (priority 2004, published 2005).

How the values were obtained:
[1] = system: HIV-1 LAI; experiment: microbe, parasite or virus in culture; conditions: for Combination Indices at % HIV Inhibition (Confidence Interval) 50%: 50% HIV inhibition; for Combination Indices at % HIV Inhibition (Confidence Interval) 50% / Combination Indices at % HIV Inhibition (Confidence Interval) 75% / Combination Indices at % HIV Inhibition (Confidence Interval) 90%: 95% CI in parenthesis; for Combination Indices at % HIV Inhibition (Confidence Interval) 75%: 75% HIV inhibition; for Combination Indices at % HIV Inhibition (Confidence Interval) 90%: 90% HIV inhibition
Procedure: Virus and cell lines. The T-cell lines, MT-2 and PM-1 were obtained through the AIDS Research and Reference Reagent Program, NIAID, and were contributed by Dr. D. Richman and Dr. R. Gallo, respectively. Both cell lines were cultured in RPMI 1640 medium supplemented with 10% fetal bovine serum, 2 mM L-glutamine and sub-cultured twice a week. The LAI strain of HIV-1 was obtained from the Fred Hutchinson Cancer Research Center, and the Bal strain was from NIH. Both virus stocks were amplified and titered in MT-2 cells (LAI) and PM-1 cells (Bal) using a virus infectivity assay.
(§1) Drug Susceptibility and Cytotoxicity Assays. For drug susceptibility assays, MT-2 cells were infected with HIV-1 LAI (or PM-1 cells with HIV-1 Bal) at an MOI of 0.005, and seeded into 96-well microtiter plates (0.1×10^6 cells/ml) containing serial dilutions of test compounds. […] Each drug ratio consisted of an array of 3-fold serial dilutions, and was performed in quadruplicate. The plates were incubated at 37° C./5% CO2. The MT-2 cells infected with HIV-1 LAI were incubated for 5 days. On day-five post-infection, 20 μl from each well was harvested and quantitated by a reverse transcriptase (RT) assay, or in samples involving non-nucleoside RT inhibitors, an MTS assay. The PM-1 cells infected with HIV-1 Bal and used for studying the combinations with CCR5 inhibitors were incubated for six days. On day-six post-infection, 20 μl from each well was harvested, 20- and 50-fold diluted and quantitated by p24 assay. Cytotoxicity assays were performed using uninfected cells, exposed to the same drug combinations, and incubated for six days. Cell viability was determined by an XTT assay. The CC50 values were calculated by using the exponential form of the median effect equation as mentioned below for calculation of EC50.
Analysis of Drug Combination Effects. For determination of CI values, drugs were diluted in a fixed ratio and multiple ratios were analyzed. The drug serial dilutions spanned a range of concentrations near the EC50 value of each compound, so that equivalent antiviral activities could be compared. Concentration-response curves were estimated for each individual drug and every combination using the median-effect equation. The equation was fit using a nonlinear regression routine (Proc Nlin) in PC SAS version 8.01 (SAS Institute Inc., SAS Version 8.01, Cary, N.C.: SAS Institute Inc., 1990).
In this equation, Fa stands for “fraction affected,” and represents the fraction of the viral load that has been inactivated. […] ED50 is drug concentration that is expected to reduce the amount of virus by 50%, and m is a parameter that reflects the slope of the concentration-response curve.
To assess antiviral effects of different drug combination treatments, combination indices (CIs) were calculated according to Chou and Rideout. The combination index was computed as CI=[D]1/[Dm]1+[D]2/[Dm]2
In this equation [Dm]1 and [Dm]2 are the concentrations of drugs that would individually produce a specific level of effect, while [D]1 and [D]2 are the concentrations of drugs in combination that would produce the same level of effect.
Theoretically, additivity is implied if the CI is equal to one, synergy if the CI is less than one, and antagonism if the CI is greater than one. […] At best, we can construct a range that contains the likely values for the CI, given the noise in the data. In this report, these ranges are reported in parentheses next to each point estimate of the CI. […] If the range fell entirely above 1.0, we would infer antagonistic behavior. If the range were to include 1.0, we would infer additivity.
In carrying out the combination experiments below, the EC50 for Compound 1 and each comparator compound was determined during the course of each study, and used in the subsequent data analysis.

[2] = system: uninfected cells; experiment: Cytotoxicity assay of drug combinations, uninfected cells, XTT assay; format: cell-based; conditions: combination with Compound 1 at the highest concentrations tested, 6 days
Procedure: as §1, with “Assays.” for “Assays. For drug susceptibility assays, MT-2 cells were infected with HIV-1 LAI (or PM-1 cells with HIV-1 Bal) at an MOI of 0.005, and seeded into 96-well microtiter plates (0.1×10^6 cells/ml) containing serial dilutions of test compounds.”, “The MT-2 cells infected with HIV-1 LAI were incubated for 5 days.” left out

[3] = combination with Compound 1, EC50 ratio 1:1 (Compound 1:comparator)
[4] = combination with Compound 1, EC50 ratio 1:1
[5] = combination with Compound 1, EC50 ratio 1:2.5
[6] = combination with Compound 1, EC50 ratio 2.5:1

| Compound | EC50 ([1]; Human immunodeficiency virus 1, MT2, 120 h) [nM] | Combination Indices at % HIV Inhibition (Confidence Interval) 50% [1, 3] | Combination Indices at % HIV Inhibition (Confidence Interval) 75% [1, 4] | Combination Indices at % HIV Inhibition (Confidence Interval) 90% [1, 4] | Combination Indices at % HIV Inhibition (Confidence Interval) 50% [1, 5] | Combination Indices at % HIV Inhibition (Confidence Interval) 75% [1, 5] | Combination Indices at % HIV Inhibition (Confidence Interval) 90% [1, 5] | Combination Indices at % HIV Inhibition (Confidence Interval) 50% [1, 6] | Combination Indices at % HIV Inhibition (Confidence Interval) 75% [1, 6] | Combination Indices at % HIV Inhibition (Confidence Interval) 90% [1, 6] | cytotoxicity of the drug combination [2] | EC50 ([1]; single drug, MT-2 cells, HIV-1 LAI, MOI 0.005, 5 days, RT assay) [nM] |
| --- | --- | --- | --- | --- | --- | --- | --- | --- | --- | --- | --- | --- |
| CON(Cc1ccc(F)cc1)C(=O)C=C(O)C(=O)O [Compound 2, 3-[(4-fluorobenzyl)methoxycarbamoyl]-2-hydroxyacrylic acid] | 39 | 0.92 (0.77, 1.06) | 0.90 (0.70, 1.10) | 0.89 (0.58, 1.21) | 0.71 (0.60, 0.82) | 0.66 (0.51, 0.80) | 0.61 (0.40, 0.82) | 0.41 (0.36, 0.47) | 0.41 (0.33, 0.48) | 0.40 (0.28, 0.52) | No significant cytotoxicity |  |
| enfuvirtide |  | 0.53 (0.46, 0.59) | 0.51 (0.42, 0.59) | 0.57 (0.42, 0.72) | 0.27 (0.21, 0.32) | 0.32 (0.22, 0.42) | 0.43 (0.22, 0.64) | 0.41 (0.30, 0.51) | 0.57 (0.37, 0.78) | 0.90 (0.36, 1.44) | No significant cytotoxicity | 3 |
